The test relates to FCA-induced mechanical hyperalgesia. Briefly: FCA-induced hyperalgesia in the guinea pig (paw pressure, Randall-Sellito). It is filed as in vivo. The settings on record: male Dunkin Hartley guinea-pigs; oral 3, 10, 30 mg/kg 24 h after intraplantar FCA; reading 1 hour after drug administration. As to the method: 100 μl of 1 mg/ml FCA was injected intraplantar into the left paw of 4 groups of 8 male Dunkin Hartley guinea-pigs (batch: 6282434, average weight 340 g). 24 hours later compounds were administered orally at 0 (vehicle), 3, 10 30 mg/kg with vehicle as 1% methylcellulose and dosing volume being 2 ml/kg and dosing straight into the stomach. The methylcellulose was added gradually to the compound into the pestle and mortar and ground together.
Behavioural readouts of mechanical hyperalgesia were obtained before FCA administration (naïve reading), after FCA but before drug administration (predose reading) and 1 hour after drug administration. The readout used was paw pressure (Randall-Sellito) and the end point was paw withdrawal. The paw pressure equipment also had one silver disc placed on the point to increase the markings by a factor of 2.

`Cc1nc2cc(NC(=O)c3ccc(-c4ccc(F)c(F)c4)nc3C)ccc2s1` [Example 3, 6-(3,4-Difluorophenyl)-2-methyl-N-(2-methylbenzothiazol-5-yl)-nicotinamide]: the “activity in FCA-induced mechanical hyperalgesia (paw withdrawal)” value (from here on “activity”) is recorded as “active”.

For `Cc1nc(-c2ccc(F)cc2)ccc1C(=O)Nc1ccc2scnc2c1` [Example 4, N-Benzothiazol-5-yl-6-(4-fluorophenyl)-2-methyl-nicotinamide], the “activity” value is “active”.

As for `Cc1nc2cc(NC(=O)c3ccc(-c4ccc(F)cc4F)nc3C)ccc2s1` [Example 2, 6-(2,4-Difluorophenyl)-2-methyl-N-(2-methylbenzothiazol-5-yl)-nicotinamide], the “activity” value was “active”.

In the case of `Cc1nc2cc(NC(=O)N3CCN(c4ccccc4F)CC3)ccc2s1` [Example 16, 4-(2-Fluorophenyl)-N-(2-methylbenzothiazol-5-yl)-1-piperazine carboxamide], the “activity” value is reported as “active”.

For the compound `Cc1nc2cc(NC(=O)c3ccc(-c4ccc(F)cc4)nc3C)ccc2s1` [Example 1, 6-(4-Fluorophenyl)-2-methyl-N-(2-methylbenzothiazol-5-yl)nicotinamide], the “activity” value is given as “active”.

On to `Cc1nc2cc(NC(=O)c3ccc(-c4cccc(F)c4F)nc3C)ccc2s1` [Example 5, 6-(2,3-Difluorophenyl)-2-methyl-N-(2-methylbenzothiazol-5-yl)-nicotinamide], for which the “activity” value is listed as “active”.

The values are drawn from patent publication US7531558B2, “Carboxamide derivatives” (Glaxo Group Limited, priority 2003, dated 2009).
